Results on 18 compounds are retold here after PubChem BioAssay AID248 (DTP/NCI, 2004).

Where “and” joins values, the source holds several entries; their conditions need not be identical. Equal values may be shown once. Toxic doses and inconclusive results are not listed.

This test has as its system L1210 leukemia ip in BDF1 mice, survival T/C. As to the kind of experiment: NCI In Vivo Anticancer Drug Screen. Data for tumor model L1210 Leukemia (intraperitoneal) in B6D2F1 (BDF1) mice. The settings on record: endpoint: mean survival time, higher = longer survival. In outline:
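Transplantable tumor model; survival measured in treated vs vehicle control mice. Value = treated/control.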

Setting [1] is: dose: 100.0 mg/kg/injection, schedule: Q01DX001 (ip), vehicle: saline with Tween-80.
Where [2] appears, read: dose: 100.0 mg/kg/injection, schedule: Q01DX009 (ip), vehicle: saline with Tween-80.
Setting [3] is: dose: 100.0 mg/kg/injection, schedule: Q04DX002 (ip), vehicle: saline with Tween-80.
The mark [4] stands for this setting: dose: 100.0 mg/kg/injection, schedule: Q04DX003 (ip), vehicle: saline with Tween-80.
Setting [5] is: dose: 200.0 mg/kg/injection, schedule: Q01DX009 (ip), vehicle: saline with Tween-80.
Where [6] appears, read: dose: 200.0 mg/kg/injection, schedule: Q04DX002 (ip), vehicle: saline with Tween-80.
Setting [7] is: dose: 200.0 mg/kg/injection, schedule: Q04DX003 (ip), vehicle: saline with Tween-80.
The mark [8] stands for this setting: dose: 400.0 mg/kg/injection, schedule: Q01DX009 (ip), vehicle: saline with Tween-80.
Setting [9] is: dose: 400.0 mg/kg/injection, schedule: Q04DX002 (ip), vehicle: saline with Tween-80.
Where [10] appears, read: dose: 100.0 mg/kg/injection, schedule: Q04DX003 (ip), vehicle: Klucel (hydroxypropylcellulose) (HPC).
Where [11] appears, read: dose: 200.0 mg/kg/injection, schedule: Q04DX003 (ip), vehicle: Klucel (hydroxypropylcellulose) (HPC).
Where [12] appears, read: dose: 400.0 mg/kg/injection, schedule: Q04DX003 (ip), vehicle: Klucel (hydroxypropylcellulose) (HPC).
[13] abbreviates: dose: 25.0 mg/kg/injection, schedule: Q01DX009 (ip), vehicle: saline.
The mark [14] stands for this setting: dose: 50.0 mg/kg/injection, schedule: Q01DX009 (ip), vehicle: saline.
The mark [15] stands for this setting: dose: 100.0 mg/kg/injection, schedule: Q01DX009 (ip), vehicle: saline.
The mark [16] stands for this setting: dose: 100.0 mg/kg/injection, schedule: Q04DX003 (ip), vehicle: saline.
Where [17] appears, read: dose: 200.0 mg/kg/injection, schedule: Q04DX003 (ip), vehicle: saline.
The mark [18] stands for this setting: dose: 100.0 mg/kg/injection, schedule: Q01DX001 (ip), vehicle: carboxymethylcellulose (CMC).
[19] abbreviates: dose: 100.0 mg/kg/injection, schedule: Q01DX009 (ip), vehicle: Klucel (hydroxypropylcellulose) (HPC).
[20] abbreviates: dose: 200.0 mg/kg/injection, schedule: Q01DX009 (ip), vehicle: Klucel (hydroxypropylcellulose) (HPC).
[21] abbreviates: dose: 400.0 mg/kg/injection, schedule: Q01DX009 (ip), vehicle: Klucel (hydroxypropylcellulose) (HPC).
The mark [22] stands for this setting: dose: 400.0 mg/kg/injection, schedule: Q04DX003 (ip), vehicle: saline with Tween-80.

In the case of `O=C(Nc1ccc([N+](=O)[O-])cc1Cl)OCCCl`, the T/C is 94 % of control under setting [1]; 98 % of control under setting [2]; 97 % of control under setting [3]; 96 % of control under setting [4]; 98 % of control (dose: 200.0 mg/kg/injection, schedule: Q01DX001 (ip), vehicle: saline with Tween-80); 87 % of control and 89 % of control under setting [5]. The T/C by setting is: under setting [6], 97 % of control; under setting [7], 86 % of control; (dose: 400.0 mg/kg/injection, schedule: Q01DX001 (ip), vehicle: saline with Tween-80) 87 % of control; under setting [8], 91 % of control; under setting [9], 94 % of control.
With `CN1CCN(c2ccccc2)CC1`, the T/C (dose: 25.0 mg/kg/injection, schedule: Q01DX001 (ip), vehicle: saline with Tween-80) is 168 % of control; the T/C (dose: 50.0 mg/kg/injection, schedule: Q01DX001 (ip), vehicle: saline with Tween-80) is 98 % of control; the T/C under setting [1] is 196 % of control.
For `O=c1ccnc(SCc2ccc(Cl)cc2)[nH]1`, the T/C (dose: 110.0 mg/kg/injection, schedule: Q01DX Z (ip), vehicle: methylcellulose (MC)) is 87 % of control.
`CCOC(=O)CCc1cc(C)[nH]c1C(=O)OCC`: the T/C was 93 % of control (dose: 100.0 mg/kg/injection, schedule: Q01DX001 (ip), vehicle: Klucel (hydroxypropylcellulose) (HPC)); 101 % of control under setting [10]; 93 % of control (dose: 200.0 mg/kg/injection, schedule: Q01DX001 (ip), vehicle: Klucel (hydroxypropylcellulose) (HPC)); 96 % of control under setting [11]; 101 % of control (dose: 400.0 mg/kg/injection, schedule: Q01DX001 (ip), vehicle: Klucel (hydroxypropylcellulose) (HPC)); 98 % of control under setting [12].
On to `C#CC(C)OCC(O)CCl` (stereo not drawn), for which the T/C by setting is: under setting [13], 97 % of control; under setting [14], 105 % of control; under setting [15], 103 % of control and 89 % of control; (dose: 100.0 mg/kg/injection, schedule: Q04DX003 (ip), vehicle: saline sonified) 97 % of control; (dose: 200.0 mg/kg/injection, schedule: Q04DX003 (ip), vehicle: saline sonified) 87 % of control; (dose: 400.0 mg/kg/injection, schedule: Q04DX003 (ip), vehicle: saline sonified) 103 % of control.
As for `CCN(CC)CC(C)OC(=O)CCN1CC1` (stereo not drawn), the T/C runs as follows: (dose: 3.0 mg/kg/injection, schedule: Q01DX009 (ip), vehicle: saline) 100 % of control; (dose: 6.0 mg/kg/injection, schedule: Q01DX009 (ip), vehicle: saline) 106 % of control; (dose: 12.0 mg/kg/injection, schedule: Q01DX009 (ip), vehicle: saline) 103 % of control; under setting [13], 101 % of control; (dose: 25.0 mg/kg/injection, schedule: Q04DX003 (ip), vehicle: saline) 108 % of control; under setting [14], 95 % of control. The T/C reads like this: (dose: 50.0 mg/kg/injection, schedule: Q04DX003 (ip), vehicle: saline) 101 % of control; under setting [16], 97 % of control and 111 % of control; under setting [17], 103 % of control.
Turning to `O=C1N(Cl)C2C(N1Cl)N(Cl)C(=O)N2Cl` (stereo not drawn), the T/C runs as follows: (dose: 50.0 mg/kg/injection, schedule: Q01DX001 (ip), vehicle: carboxymethylcellulose (CMC)) 97 % of control; under setting [18], 97 % of control.
Turning to `C=CC[P+](Cc1cccc(C)c1)(c1ccccc1)c1ccccc1`, the T/C is, setting by setting: (dose: 6.25 mg/kg/injection, schedule: Q01DX009 (ip), vehicle: saline with Tween-80) 107 % of control; (dose: 12.5 mg/kg/injection, schedule: Q01DX009 (ip), vehicle: saline with Tween-80) 115 % of control.
In the case of `Cc1ccc2c(c1)CCCN2C`, the T/C is, setting by setting: under setting [14], 96 % of control; under setting [15], 95 % of control; under setting [16], 100 % of control; under setting [17], 94 % of control.
As for `CC12CCC(c3cn(C(=O)c4cccnc4)nc31)C2(C)C` (stereo not drawn), the T/C is, setting by setting: under setting [10], 92 % of control; under setting [11], 97 % of control; under setting [12], 95 % of control.
Take `O=C(COc1ccc(Cl)cc1Cl)Nc1cc(C(F)(F)F)ccc1Cl`: the T/C by setting is: (dose: 50.0 mg/kg/injection, schedule: Q01DX001 (ip), vehicle: other) 96 % of control; (dose: 100.0 mg/kg/injection, schedule: Q01DX001 (ip), vehicle: other) 107 % of control; (dose: 100.0 mg/kg/injection, schedule: Q04DX002 (ip), vehicle: gum acacia) 118 % of control; (dose: 200.0 mg/kg/injection, schedule: Q01DX001 (ip), vehicle: other) 89 % of control; (dose: 200.0 mg/kg/injection, schedule: Q04DX002 (ip), vehicle: gum acacia) 91 % of control; (dose: 400.0 mg/kg/injection, schedule: Q01DX001 (ip), vehicle: other) 94 % of control. Moreover, the T/C (dose: 400.0 mg/kg/injection, schedule: Q04DX002 (ip), vehicle: gum acacia) is 103 % of control.
With `CC(C)(C)C(=O)CC(=O)C(C)(C)C.CC(C)(C)C(=O)CC(=O)C(C)(C)C.CC(C)(C)C(=O)CC(=O)C(C)(C)C.CC(C)(C)C(=O)CC(=O)C(C)(C)C.[Ce]`, the T/C was 100 % of control under setting [19]; 103 % of control under setting [10]; 96 % of control under setting [20]; 94 % of control under setting [11]; 107 % of control under setting [21]; 106 % of control under setting [12].
As for `N#CC1c2ccccc2C=CN1C(=O)c1ccccc1` (stereo not drawn), the T/C by setting is: (dose: 50.0 mg/kg/injection, schedule: Q01DX009 (ip), vehicle: saline with Tween-80) 95 % of control; under setting [19], 92 % of control; under setting [10], 94 % of control; under setting [4], 97 % of control; under setting [20], 97 % of control; under setting [5], 93 % of control. Moreover, the T/C by setting is: under setting [11], 98 % of control; under setting [7], 94 % of control; under setting [21], 92 % of control; under setting [8], 95 % of control; under setting [12], 94 % of control; under setting [22], 96 % of control.
On to `Nc1ncnc2c1ncn2CCCNC(=O)c1cc([N+](=O)[O-])cc([N+](=O)[O-])c1`, for which the T/C is, setting by setting: under setting [15], 103 % of control; (dose: 200.0 mg/kg/injection, schedule: Q01DX009 (ip), vehicle: saline) 96 % of control; (dose: 400.0 mg/kg/injection, schedule: Q01DX009 (ip), vehicle: saline) 90 % of control.
As for `COC1CC(N=[N+]=[N-])C(OS(C)(=O)=O)C(C)O1` (stereo not drawn), the T/C reads like this: under setting [18], 98 % of control; under setting [2], 109 % of control; under setting [4], 107 % of control; (dose: 200.0 mg/kg/injection, schedule: Q01DX001 (ip), vehicle: carboxymethylcellulose (CMC)) 106 % of control; under setting [5], 94 % of control; under setting [7], 107 % of control. Moreover, the T/C reads like this: (dose: 400.0 mg/kg/injection, schedule: Q01DX001 (ip), vehicle: carboxymethylcellulose (CMC)) 98 % of control; under setting [8], 109 % of control; under setting [22], 108 % of control.
As for `O=C(Cc1ccccc1)NCc1ccc(Cl)cc1`, the T/C is 96 % of control under setting [3], 101 % of control under setting [6] and 114 % of control under setting [9].
Turning to `O=S(Sc1ccccc1)c1ccccc1` (stereo not drawn), the T/C runs as follows: (dose: 0.94 mg/kg/injection, schedule: Q01DX Z (ip), vehicle: saline) 104 % of control; (dose: 3.75 mg/kg/injection, schedule: Q01DX Z (ip), vehicle: saline) 96 % of control.
For `Nc1cc(Br)cc2c1nc(NCCO)c1ccccc12`, the T/C (dose: 50.0 mg/kg/injection, schedule: Q04DX003 (ip), vehicle: Klucel (hydroxypropylcellulose) (HPC)) is 118 % of control; the T/C under setting [10] was 102 % of control; the T/C under setting [11] was 97 % of control; the T/C under setting [12] is 105 % of control.
